Source: US20230248653A1, “ELECTROSPRAYED AND ELECTROSPUN CANNABINOID COMPOSITIONS AND PROCESS TO PRODUCE” (priority 2019, published 2023)

Assay: Solubility of CBD in water, HFIP and acetic acid-water solutions
Assay type: physicochemical
Source text: Fast dissolving particles were produced using edible gelatin nanoscale particles created from acetic acid-water based solutions. A solution was created, and the electrospray process was repeated to see if reproducible results were obtainable.
In order to create CBD particles in a gelatin-based solution, the solubility of CBD in different acetic acid-water based solutions was explored.

## C=C(C)[C@@H]1CCC(C)=C[C@H]1c1c(O)cc(CCCCC)cc1O [CBD, Cannabidiol]
30% v/v AA(aq.)
  solubility in acetic acid-water solution: Emulsions were formed
40% v/v AA(aq.)
  solubility in acetic acid-water solution: Emulsions were formed
50% v/v AA(aq.) and higher concentrations
  solubility in acetic acid-water solution: clear, homogeneous and well mixed soluble CBD solution
HFIP
  solubility in HFIP: soluble
water
  solubility in water: not able to dissolve in water
